Source: US20110143946A1, “Method for predicting the response of a tumor in a patient suffering from or at risk of developing recurrent gynecologic cancer towards a chemotherapeutic agent” (SIEMENS HEALTHCARE DIAGNOSTICS INC., priority 2007, published 2011)

Legend:
primary tumors = assay: in vitro chemosensitivity assay of primary tumors (ATP-measurement, AUC of dose-response curve); type: cell-based; conditions: 6 days of incubation; for response (chemosensitivity) of tumors of the basal subtype: basal molecular subtype (MLPH<2000); for response (chemosensitivity) of tumors of the luminal A subtype: luminal A molecular subtype (ESR1 >6000, PGR >160)
Procedure: In a second step for the identification of an optimal predictive gene signature in vitro chemosensitivity assays of primary tumors are performed to determine the response of a tumor towards a single chemotherapeutic agent. In said in vitro chemosensitivity assays the primary tumors were cultivated in different assays with increasing concentrations of the agents. After 6 days of incubation the vitality of the tumor cells were determined with an ATP-measurement. Hereby, the growing inhibition for the different agent concentrations could be determined and a dose-response curve could be provided. For each tumor the Area under the dose-response curve (AUC) could be determined for the different agents. The AUC is used to evaluate the response of a tumor towards a chemotherapeutic agent. The bigger the AUC, the more sensitive is the tumor towards the agent. The tumor samples were classified according to their sensitivity towards the agents into three classes (resistant, intermediate, sensitive) via the tertiles of the AUC arrangement.

NCI 60 cell lines = assay: NCI 60 cell line chemosensitivity (GI-50); type: cell-based; conditions: AKR1C1 cut-off score 5000
Procedure: In this study several tumor cell lines of different cancer types were tested for their sensitivity towards several chemotherapeutic agents. The GI-50 value (concentration, where half of the tumor cells are inhibited regarding growing) for Paclitaxel was used to test, whether AKR1C1 is appropriate for a prediction of a Paclitaxel sensitivity in cell lines. […] The defined cut-off score (5000) allowed a significant classification (p=0.0049) of the resistant and sensitive tumor cells of the NCI 60 cell lines (FIG. 14).
NCI 60 cell lines were classified with the marker gene AKR1C1 (cut-off score 5000). Onto the ordinate the concentration of Palitaxel is depicted, which is needed for the inhibition of half of the cells (GI-50). Altogether for Paclitaxel 54 GI-50 values for the cell lines were provided.

SMILES	response (chemosensitivity) of tumors of the basal subtype (primary tumors)	response (chemosensitivity) of tumors of the luminal A subtype (primary tumors)	sensitivity (GI-50) of cell lines with high expression of AKR1C1 (NCI 60 cell lines)
COc1cccc2c1C(=O)c1c(O)c3c(c(O)c1C2=O)C[C@@](O)(C(=O)CO)C[C@@H]3O[C@H]1C[C@H](N)[C@@H](O)[C@H](C)O1 [Epirubicin]	particularly sensitive	resistant	–
CC(=O)O[C@H]1C(=O)[C@@]2(C)[C@H]([C@H](OC(=O)c3ccccc3)[C@]3(O)C[C@H](OC(=O)[C@H](O)[C@@H](NC(=O)c4ccccc4)c4ccccc4)C(C)=C1C3(C)C)[C@]1(OC(C)=O)CO[C@@H]1C[C@@H]2O [Paclitaxel]	particularly sensitive	resistant	mainly are resistant
